This passage reports Ki and Kd results from ChEMBL document CHEMBL3600373, “Mapping Selective Inhibition of the Cancer-Related Carbonic Anhydrase IX Using Structure-Activity Relationships of Glucosyl-Based Sulfamates” (J Med Chem, 2015).

One assay deals with Carbonic anhydrase 12 (Homo sapiens, UniProt O43570). The experiment in a line: Inhibition of human recombinant CA12 expressed in Escherichia coli by stopped flow CO2 hydration assay.
Assay [1] deals with T1, Carbonic anhydrase 9 (Homo sapiens, UniProt Q16790).
Description: Inhibition of human recombinant CA9 expressed in Escherichia coli by stopped flow CO2 hydration assay
The target of the next assay is Carbonic anhydrase 2 (Homo sapiens, UniProt P00918). The experiment in a line: Binding affinity to human CA2.
The target of assay [2] is T1, Carbonic anhydrase 9. The experiment in a line: Binding affinity to human CA9.

Sequence of Carbonic anhydrase 12 (O43570 whole entry): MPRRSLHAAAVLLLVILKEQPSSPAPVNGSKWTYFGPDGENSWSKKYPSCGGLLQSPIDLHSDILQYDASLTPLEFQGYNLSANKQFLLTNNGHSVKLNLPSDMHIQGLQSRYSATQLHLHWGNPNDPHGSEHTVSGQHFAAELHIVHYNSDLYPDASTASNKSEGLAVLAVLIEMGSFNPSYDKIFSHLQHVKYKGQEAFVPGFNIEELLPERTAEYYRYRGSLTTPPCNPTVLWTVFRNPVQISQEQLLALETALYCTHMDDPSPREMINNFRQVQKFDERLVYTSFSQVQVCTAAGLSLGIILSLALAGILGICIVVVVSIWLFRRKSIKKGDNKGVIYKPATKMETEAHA

What is called Ki is the equilibrium dissociation constant of an inhibitor or competing ligand from its target. In the case of `CC(=O)OC[C@H]1O[C@@H](S(=O)(=O)NCCCCCOS(N)(=O)=O)[C@H](OC(C)=O)[C@@H](OC(C)=O)[C@@H]1OC(C)=O`, the Ki at Carbonic anhydrase 12 is 9 nM; on Carbonic anhydrase 9 [1], 2 nM.
As usually defined, the Kd is a measure of binding affinity in units of concentration. Higher therefore signals weaker binding. With `OC[C@H]1O[C@@](CO)(O[C@H]2O[C@H](CO)[C@@H](O)[C@H](O)[C@H]2O)[C@@H](O)[C@@H]1O` [SUCROSE], the Kd at Carbonic anhydrase 2 worked out at 450 mM; on Carbonic anhydrase 9 [2], 150 mM.
